Results on one substance are retold here after US20230139826A1 (NONO INC., priority 2020, published 2023).

Data set [1] deals with tenecteplase (TNK) 37.5 ug/ml. Put plainly: rat plasma during a challenge with tenecteplase (TNK; 37.5 ug/ml). The following applies: Rat Sprague Dawley.
The subject of a further data set is plasmin (10 ug/mL). Put plainly: PBS during a challenge with plasmin (10 ug/mL). The following applies: 37° C.
Data set [2] can be described thus: rat plasma in the absence of alteplase. The following applies: Rat Sprague Dawley, 37° C., up to 45 min.
The nature of data set [3]: human plasma in the absence of alteplase. The following applies: 37° C., up to 45 min.
The test system of data set [4] is tenecteplase (TNK) 6.25 ug/ml. Put plainly: human plasma during a challenge with tenecteplase (TNK; 6.25 ug/ml).
The subject of data set [5] is rt-PA (alteplase) 135 ug/ml. Put plainly: human plasma during a challenge with rt-PA (135 ug/ml). The following applies: 37° C., up to 45 min.
Data set [6] deals with rt-PA (alteplase) (135 ug/ml). Put plainly: PBS during a challenge with rt-PA (135 ug/ml). The following applies: 37° C.
For data set [7], the system named is rt-PA (alteplase) 135 ug/ml. Put plainly: rat plasma during a challenge with rt-PA (135 ug/ml). The following applies: Rat Sprague Dawley, 37° C., up to 45 min.

Turning to ygrkkrrqrrrKLSSIESDV, the not cleaved result was “no rapid elimination on addition of TNK” in data set [1]; “no significant degradation” in the data set on plasmin (10 ug/mL); “stable” in data set [2]; “stable” in data set [3]; “no rapid elimination on addition of TNK” in data set [4]; “no rapid degradation on addition of alteplase” in data set [5]. The values for the not cleaved entry in data set [6] and in data set [7] were “not affected by co-incubation with alteplase” and “no rapid degradation on addition of alteplase”, respectively.
